Laboratory results: the supplement of paper PMC4862054

The molecules below were run on HCC1937 (assay: normalised response (% of control), CellTiter-Glo; higher = more viable cells (100 = DMSO, 0 = benzethonium chloride kill control)). Conditions: incubation time: 72 h.
Description: (§1)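 DSRT, 72 h incubation, CellTox Green / CellTiter-Glo readout. Signal is normalised to DMSO and benzethonium chloride controls. Value is the normalised response at dose 3.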

| Compound | normalised response [%] |
| --- | --- |
| O=C(CCCCCCC(=O)Nc1ccccc1)NO [Vorinostat] (100 nM) | 97.7 |

What follows are molecules tested on BT-549 in the same assay as above. Conditions: incubation time: 72 h.
Description: as §1

| Compound | normalised response [%] |
| --- | --- |
| Cc1cc(Nc2nc(N[C@@H](C)c3ncc(F)cn3)ncc2Cl)[nH]n1 [AZD1480] (10 nM) | 102 |
| CC1(COc2ccc3c(c2)ncn3-c2ccc3cccc(N4CCC(N)CC4)c3n2)COC1 [Crenolanib] (100 nM) | 103 |
| Cn1cc(C2=C(c3cn(C4CCN(Cc5ccccn5)CC4)c4ccccc34)C(=O)NC2=O)c2ccccc21 [Enzastaurin] (100 nM) | 98.3 |
| Nc1ccn([C@@H]2O[C@H](CO)[C@@H](O)C2(F)F)c(=O)n1 [Gemcitabine] (10 nM) | 61.3 |
| C=CCn1c(=O)c2cnc(Nc3ccc(N4CCN(C)CC4)cc3)nc2n1-c1cccc(C(C)(C)O)n1 [MK1775] (100 nM) | 91.1 |
| CO[C@@H]1[C@H](N(C)C(=O)c2ccccc2)C[C@H]2O[C@]1(C)n1c3ccccc3c3c4c(c5c6ccccc6n2c5c31)C(=O)NC4 [Midostaurin] (100 nM) | 93.4 |
| CCNC(=O)c1noc(-c2cc(C(C)C)c(O)cc2O)c1-c1ccc(CN2CCOCC2)cc1 [NVP-AUY922] (10 nM) | 73.2 |
| O=[N+]([O-])c1ccc2c(c1)S(=O)(=O)C=C2 [Stattic] (500 nM) | 85.3 |
| O=C(CCCCCCC(=O)Nc1ccccc1)NO [Vorinostat] (100 nM) | 100 |

These molecules were tested on MDA-MB-436 in the same assay as above. Conditions: incubation time: 72 h.
Description: as §1

| Compound | normalised response [%] |
| --- | --- |
| Cc1cc(Nc2nc(N[C@@H](C)c3ncc(F)cn3)ncc2Cl)[nH]n1 [AZD1480] (10 nM) | 106 |
| CC1(COc2ccc3c(c2)ncn3-c2ccc3cccc(N4CCC(N)CC4)c3n2)COC1 [Crenolanib] (100 nM) | 103 |
| Cn1cc(C2=C(c3cn(C4CCN(Cc5ccccn5)CC4)c4ccccc34)C(=O)NC2=O)c2ccccc21 [Enzastaurin] (100 nM) | 102 |
| Nc1ccn([C@@H]2O[C@H](CO)[C@@H](O)C2(F)F)c(=O)n1 [Gemcitabine] (10 nM) | 64.2 |
| C=CCn1c(=O)c2cnc(Nc3ccc(N4CCN(C)CC4)cc3)nc2n1-c1cccc(C(C)(C)O)n1 [MK1775] (100 nM) | 69.4 |
| CO[C@@H]1[C@H](N(C)C(=O)c2ccccc2)C[C@H]2O[C@]1(C)n1c3ccccc3c3c4c(c5c6ccccc6n2c5c31)C(=O)NC4 [Midostaurin] (100 nM) | 102 |
| CCNC(=O)c1noc(-c2cc(C(C)C)c(O)cc2O)c1-c1ccc(CN2CCOCC2)cc1 [NVP-AUY922] (10 nM) | 56.4 |
| O=[N+]([O-])c1ccc2c(c1)S(=O)(=O)C=C2 [Stattic] (500 nM) | 100 |
| O=C(CCCCCCC(=O)Nc1ccccc1)NO [Vorinostat] (100 nM) | 97 |

Each molecule was assayed on CAL-51 in the same assay as above. Conditions: incubation time: 72 h.
Description: as §1

| Compound | normalised response [%] |
| --- | --- |
| Cc1cc(Nc2nc(N[C@@H](C)c3ncc(F)cn3)ncc2Cl)[nH]n1 [AZD1480] (10 nM) | 114 |
| CC1(COc2ccc3c(c2)ncn3-c2ccc3cccc(N4CCC(N)CC4)c3n2)COC1 [Crenolanib] (100 nM) | 77.8 |
| Cn1cc(C2=C(c3cn(C4CCN(Cc5ccccn5)CC4)c4ccccc34)C(=O)NC2=O)c2ccccc21 [Enzastaurin] (100 nM) | 65 |
| Nc1ccn([C@@H]2O[C@H](CO)[C@@H](O)C2(F)F)c(=O)n1 [Gemcitabine] (10 nM) | 82 |
| C=CCn1c(=O)c2cnc(Nc3ccc(N4CCN(C)CC4)cc3)nc2n1-c1cccc(C(C)(C)O)n1 [MK1775] (100 nM) | 94.7 |
| CO[C@@H]1[C@H](N(C)C(=O)c2ccccc2)C[C@H]2O[C@]1(C)n1c3ccccc3c3c4c(c5c6ccccc6n2c5c31)C(=O)NC4 [Midostaurin] (100 nM) | 89.7 |
| CCNC(=O)c1noc(-c2cc(C(C)C)c(O)cc2O)c1-c1ccc(CN2CCOCC2)cc1 [NVP-AUY922] (10 nM) | 99.3 |
| O=[N+]([O-])c1ccc2c(c1)S(=O)(=O)C=C2 [Stattic] (500 nM) | 99 |
| O=C(CCCCCCC(=O)Nc1ccccc1)NO [Vorinostat] (100 nM) | 69.6 |

The molecules below were run on MDA-MB-453 in the same assay as above. Conditions: incubation time: 72 h.
Description: as §1

| Compound | normalised response [%] |
| --- | --- |
| Cc1cc(Nc2nc(N[C@@H](C)c3ncc(F)cn3)ncc2Cl)[nH]n1 [AZD1480] (10 nM) | 88.9 |
| CC1(COc2ccc3c(c2)ncn3-c2ccc3cccc(N4CCC(N)CC4)c3n2)COC1 [Crenolanib] (100 nM) | 112 |
| Cn1cc(C2=C(c3cn(C4CCN(Cc5ccccn5)CC4)c4ccccc34)C(=O)NC2=O)c2ccccc21 [Enzastaurin] (100 nM) | 105 |
| Nc1ccn([C@@H]2O[C@H](CO)[C@@H](O)C2(F)F)c(=O)n1 [Gemcitabine] (10 nM) | 139 |
| C=CCn1c(=O)c2cnc(Nc3ccc(N4CCN(C)CC4)cc3)nc2n1-c1cccc(C(C)(C)O)n1 [MK1775] (100 nM) | 67.6 |
| CO[C@@H]1[C@H](N(C)C(=O)c2ccccc2)C[C@H]2O[C@]1(C)n1c3ccccc3c3c4c(c5c6ccccc6n2c5c31)C(=O)NC4 [Midostaurin] (100 nM) | 94.3 |
| CCNC(=O)c1noc(-c2cc(C(C)C)c(O)cc2O)c1-c1ccc(CN2CCOCC2)cc1 [NVP-AUY922] (10 nM) | 101 |
| O=[N+]([O-])c1ccc2c(c1)S(=O)(=O)C=C2 [Stattic] (500 nM) | 85.2 |
| O=C(CCCCCCC(=O)Nc1ccccc1)NO [Vorinostat] (100 nM) | 101 |

Each molecule was assayed on HDQ-P1 in the same assay as above. Conditions: incubation time: 72 h.
Description: as §1

| Compound | normalised response [%] |
| --- | --- |
| Cc1cc(Nc2nc(N[C@@H](C)c3ncc(F)cn3)ncc2Cl)[nH]n1 [AZD1480] (10 nM) | 97.1 |
| CC1(COc2ccc3c(c2)ncn3-c2ccc3cccc(N4CCC(N)CC4)c3n2)COC1 [Crenolanib] (100 nM) | 105 |
| Cn1cc(C2=C(c3cn(C4CCN(Cc5ccccn5)CC4)c4ccccc34)C(=O)NC2=O)c2ccccc21 [Enzastaurin] (100 nM) | 94 |
